Experimental data as given in patent US4293489A, “Derivatives of A-30912A nucleus” (Eli Lilly and Company, priority 1980, dated 1981).
Like-named read-outs stand apart in the source and are kept apart here. Starred links: 1 amine or outer side, 2 acyl side, 3 side chain; linkers in the order of their positions; H or OH if unused. Positions of bridges follow the written chain, without caps; N, C: chain ends. Non-standard residues stand in square brackets, D forms with d. Residues, ends and D or L forms follow the SMILES beside them. *: point of attachment. Orn(4R-OH,5R-OH) = O=C([C@H](C[C@@H](O)[C@@H](O)N[*:3])N[*:1])[*:2]; hTyr(3S-OH,4S-OH) = N[C@H](C(=O)O)[C@H](O)[C@@H](O)c1ccc(O)cc1; Benzoyl(4-dodecyloxy) = CCCCCCCCCCCCOc1ccc(C(=O)*)cc1; Benzoyl(4-OC10H21) = CCCCCCCCCCOc1ccc(C(=O)*)cc1; Pro(3S-OH,4S-Me) = C[C@H]1CN[C@H](C(=O)O)[C@H]1O; Benzoyl(4-octyl) = CCCCCCCCc1ccc(C(=O)*)cc1; X5 = CCCCCCCCCCCCS(=O)(=O)c1ccc(C(=O)*)cc1; X20 = CCCCCCCCCCCCCCOc1ccc(C(=O)*)cc1; X18 = CCCCCCCCCCCCOc1ccc(CC(=O)*)cc1; X3 = CCCCCCCCCCCCCCSc1ccc(C(=O)*)cc1; X16 = CCCCCCCCOc1ccc(C=CC(=O)*)cc1; Hyp = O=C(O)[C@@H]1C[C@@H](O)CN1; X19 = CCCCCCOc1ccc(C=CC(=O)*)cc1; X6 = CCCCCCCCCCSc1ccc(C(=O)*)cc1; X9 = CCCCCCCCCCOc1cccc(C(=O)*)c1; X7 = CCCCCCCCSc1ccc(C(=O)*)cc1; X14 = CCCCCCOc1ccc(C(=O)*)cc1; X17 = CCCCOc1ccc(CCC(=O)*)cc1

Experiments:
[1] = in vivo; conditions: mouse, po, 416 mg/kg
[2] = tested on: Candida albicans A-26; assay: Therapeutic activity against Candida albicans A-26 infection in X-irradiated mice, lowest active dose; assay type: in vivo; conditions: A26, light or radiation study, sc
Procedure: (§1) The results of in vivo tests to evaluate the effectiveness of the compounds of Examples 3 and 4 against an infection caused by Candida albicans A-26 in mice are given in Table 13, where activity is measured by the ED50 value (the dose in mg/kg. required to cure 50% of the test animals). In a separate test, the results of which are also summarized in Table 13, activity is indicated by the lowest dose at which a significant anti-fungal effect is observed. In this test, groups of male albino mice (specific pathogen free), weighing 18 to 20 grams, are infected intravenously with Candida albicans A-26. The animals are X-irradiated 24 hours prior to infection at about 50 roentgens per minute for 8 minutes (400 total dose) to reduce immune responses to the infecting organism. At 0, 4, and 24 hours post infection each group of mice is given graded doses subcutaneously of the test compound as a suspension in 33% polyethylene glycol (PEG)-water. The day of death for each animal is recorded.
(§2) *Dosage Schedules: A. = 40, 20, 15 and 10 mg/kg; Dosages given 0, 4, and
(§3) 24 hours post injection as suspension of test compound in 30% PEGH2
(§4) O. Number of mice receiving test compounds at each dosage level: 6 mice
(§5) per group. Number of mice in control (untreated) group: 10 mice per group

[3] = tested on: Candida albicans A-26; assay: Therapeutic activity against Candida albicans A-26 infection in mice, ED50; assay type: in vivo; conditions: doses 0, 4 and 24 hours post infection, increase in survival time vs control, Reed-Muench
Procedure: as §1, §2, §3, §4, §5
**As measured by increase in survival time of treated animals versus
control, calculated by method of Reed v Mueuch, American J. Hygiene, 27,

[4] = X-irradiated mice, subcutaneous at 0, 4 and 24 hours post infection, survival, read-out: Lowest Active Dose
[5] = Candida albicans, A26, sc, read-out: ED50
[6] = read-out: Lowest Active Dose, X-irradiated mice, subcutaneous at 0, 4 and 24 hours post infection, survival

SMILES	Cmax [1]	minimal effective dose [2, 4]	ED50 [3, 5]	minimal effective dose [2, 6]	ED50 [3]
CCCCCCCCCCCCCCOc1ccc(C(=O)N[C@H]2C[C@@H](O)[C@@H](O)NC(=O)[C@@H]3[C@@H](O)[C@@H](C)CN3C(=O)[C@H]([C@@H](C)O)NC(=O)[C@H]([C@H](O)[C@@H](O)c3ccc(O)cc3)NC(=O)[C@@H]3C[C@@H](O)CN3C(=O)[C@H]([C@@H](C)O)NC2=O)cc1 [drawing 184] (X20-[Orn(4R-OH,5R-OH)]T[Hyp][hTyr(3S-OH,4S-OH)]T[Pro(3S-OH,4S-Me)]; lactam 1-C)	5000 ng/mL				
CCCCCCCCCCCCCCSc1ccc(C(=O)N[C@H]2C[C@@H](O)[C@@H](O)NC(=O)[C@@H]3[C@@H](O)[C@@H](C)CN3C(=O)[C@H]([C@@H](C)O)NC(=O)[C@H]([C@H](O)[C@@H](O)c3ccc(O)cc3)NC(=O)[C@@H]3C[C@@H](O)CN3C(=O)[C@H]([C@@H](C)O)NC2=O)cc1 [drawing 188] (X3-[Orn(4R-OH,5R-OH)]T[Hyp][hTyr(3S-OH,4S-OH)]T[Pro(3S-OH,4S-Me)]; lactam 1-C)	230000 ng/mL				
CCCCCCCCc1ccc(C(=O)N[C@H]2C[C@@H](O)[C@@H](O)NC(=O)[C@@H]3[C@@H](O)[C@@H](C)CN3C(=O)[C@H]([C@@H](C)O)NC(=O)[C@H]([C@H](O)[C@@H](O)c3ccc(O)cc3)NC(=O)[C@@H]3C[C@@H](O)CN3C(=O)[C@H]([C@@H](C)O)NC2=O)cc1 [drawing 169] ({Benzoyl(4-octyl)}-[Orn(4R-OH,5R-OH)]T[Hyp][hTyr(3S-OH,4S-OH)]T[Pro(3S-OH,4S-Me)]; lactam 1-C)		40 mg/kg	30 mg/kg		
CCCCCCCCOc1ccc(C=CC(=O)N[C@H]2C[C@@H](O)[C@@H](O)NC(=O)[C@@H]3[C@@H](O)[C@@H](C)CN3C(=O)[C@H]([C@@H](C)O)NC(=O)[C@H]([C@H](O)[C@@H](O)c3ccc(O)cc3)NC(=O)[C@@H]3C[C@@H](O)CN3C(=O)[C@H]([C@@H](C)O)NC2=O)cc1 [drawing 176] (X16-[Orn(4R-OH,5R-OH)]T[Hyp][hTyr(3S-OH,4S-OH)]T[Pro(3S-OH,4S-Me)]; lactam 1-C)			3.75 mg/kg	5 mg/kg	
CCCCCCCCCCCCOc1ccc(C(=O)N[C@H]2C[C@@H](O)[C@@H](O)NC(=O)[C@@H]3[C@@H](O)[C@@H](C)CN3C(=O)[C@H]([C@@H](C)O)NC(=O)[C@H]([C@H](O)[C@@H](O)c3ccc(O)cc3)NC(=O)[C@@H]3C[C@@H](O)CN3C(=O)[C@H]([C@@H](C)O)NC2=O)cc1 [drawing 183] ({Benzoyl(4-dodecyloxy)}-[Orn(4R-OH,5R-OH)]T[Hyp][hTyr(3S-OH,4S-OH)]T[Pro(3S-OH,4S-Me)]; lactam 1-C)	5000 ng/mL				
CCCCCCCCCCOc1ccc(C(=O)N[C@H]2C[C@@H](O)[C@@H](O)NC(=O)[C@@H]3[C@@H](O)[C@@H](C)CN3C(=O)[C@H]([C@@H](C)O)NC(=O)[C@H]([C@H](O)[C@@H](O)c3ccc(O)cc3)NC(=O)[C@@H]3C[C@@H](O)CN3C(=O)[C@H]([C@@H](C)O)NC2=O)cc1 [drawing 152] ({Benzoyl(4-OC10H21)}-[Orn(4R-OH,5R-OH)]T[Hyp][hTyr(3S-OH,4S-OH)]T[Pro(3S-OH,4S-Me)]; lactam 1-C)			8 mg/kg	5 mg/kg	
CCCCCCCCCCSc1ccc(C(=O)N[C@H]2C[C@@H](O)[C@@H](O)NC(=O)[C@@H]3[C@@H](O)[C@@H](C)CN3C(=O)[C@H]([C@@H](C)O)NC(=O)[C@H]([C@H](O)[C@@H](O)c3ccc(O)cc3)NC(=O)[C@@H]3C[C@@H](O)CN3C(=O)[C@H]([C@@H](C)O)NC2=O)cc1 [drawing 156] (X6-[Orn(4R-OH,5R-OH)]T[Hyp][hTyr(3S-OH,4S-OH)]T[Pro(3S-OH,4S-Me)]; lactam 1-C)		20 mg/kg	28 mg/kg		
CCCCCCCCCCCCS(=O)(=O)c1ccc(C(=O)N[C@H]2C[C@@H](O)[C@@H](O)NC(=O)[C@@H]3[C@@H](O)[C@@H](C)CN3C(=O)[C@H]([C@@H](C)O)NC(=O)[C@H]([C@H](O)[C@@H](O)c3ccc(O)cc3)NC(=O)[C@@H]3C[C@@H](O)CN3C(=O)[C@H]([C@@H](C)O)NC2=O)cc1 [drawing 161] (X5-[Orn(4R-OH,5R-OH)]T[Hyp][hTyr(3S-OH,4S-OH)]T[Pro(3S-OH,4S-Me)]; lactam 1-C)		20 mg/kg	53 mg/kg		
CCCCCCCCCCCCOc1ccc(C(=O)N[C@H]2C[C@@H](O)[C@@H](O)NC(=O)[C@@H]3[C@@H](O)[C@@H](C)CN3C(=O)[C@H]([C@@H](C)O)NC(=O)[C@H]([C@H](O)[C@@H](O)c3ccc(O)cc3)NC(=O)[C@@H]3C[C@@H](O)CN3C(=O)[C@H]([C@@H](C)O)NC2=O)cc1 [drawing 153] ({Benzoyl(4-dodecyloxy)}-[Orn(4R-OH,5R-OH)]T[Hyp][hTyr(3S-OH,4S-OH)]T[Pro(3S-OH,4S-Me)]; lactam 1-C)		2.5 mg/kg	< 5 mg/kg	≤ 5 mg/kg	3.9 mg/kg
CCCCCCOc1ccc(C=CC(=O)N[C@H]2C[C@@H](O)[C@@H](O)NC(=O)[C@@H]3[C@@H](O)[C@@H](C)CN3C(=O)[C@H]([C@@H](C)O)NC(=O)[C@H]([C@H](O)[C@@H](O)c3ccc(O)cc3)NC(=O)[C@@H]3C[C@@H](O)CN3C(=O)[C@H]([C@@H](C)O)NC2=O)cc1 [drawing 175] (X19-[Orn(4R-OH,5R-OH)]T[Hyp][hTyr(3S-OH,4S-OH)]T[Pro(3S-OH,4S-Me)]; lactam 1-C)			21.8 mg/kg	5 mg/kg	
CCCCCCCCCCCCOc1ccc(CC(=O)N[C@H]2C[C@@H](O)[C@@H](O)NC(=O)[C@@H]3[C@@H](O)[C@@H](C)CN3C(=O)[C@H]([C@@H](C)O)NC(=O)[C@H]([C@H](O)[C@@H](O)c3ccc(O)cc3)NC(=O)[C@@H]3C[C@@H](O)CN3C(=O)[C@H]([C@@H](C)O)NC2=O)cc1 [drawing 178] (X18-[Orn(4R-OH,5R-OH)]T[Hyp][hTyr(3S-OH,4S-OH)]T[Pro(3S-OH,4S-Me)]; lactam 1-C)			8.4 mg/kg	10 mg/kg	
CCCCCCCCSc1ccc(C(=O)N[C@H]2C[C@@H](O)[C@@H](O)NC(=O)[C@@H]3[C@@H](O)[C@@H](C)CN3C(=O)[C@H]([C@@H](C)O)NC(=O)[C@H]([C@H](O)[C@@H](O)c3ccc(O)cc3)NC(=O)[C@@H]3C[C@@H](O)CN3C(=O)[C@H]([C@@H](C)O)NC2=O)cc1 [drawing 155] (X7-[Orn(4R-OH,5R-OH)]T[Hyp][hTyr(3S-OH,4S-OH)]T[Pro(3S-OH,4S-Me)]; lactam 1-C)			37.4 mg/kg	10 mg/kg	
CCCCCCOc1ccc(C(=O)N[C@H]2C[C@@H](O)[C@@H](O)NC(=O)[C@@H]3[C@@H](O)[C@@H](C)CN3C(=O)[C@H]([C@@H](C)O)NC(=O)[C@H]([C@H](O)[C@@H](O)c3ccc(O)cc3)NC(=O)[C@@H]3C[C@@H](O)CN3C(=O)[C@H]([C@@H](C)O)NC2=O)cc1 [drawing 167] (X14-[Orn(4R-OH,5R-OH)]T[Hyp][hTyr(3S-OH,4S-OH)]T[Pro(3S-OH,4S-Me)]; lactam 1-C)		20 mg/kg	28 mg/kg		
CCCCOc1ccc(CCC(=O)N[C@H]2C[C@@H](O)[C@@H](O)NC(=O)[C@@H]3[C@@H](O)[C@@H](C)CN3C(=O)[C@H]([C@@H](C)O)NC(=O)[C@H]([C@H](O)[C@@H](O)c3ccc(O)cc3)NC(=O)[C@@H]3C[C@@H](O)CN3C(=O)[C@H]([C@@H](C)O)NC2=O)cc1 [drawing 170] (X17-[Orn(4R-OH,5R-OH)]T[Hyp][hTyr(3S-OH,4S-OH)]T[Pro(3S-OH,4S-Me)]; lactam 1-C)		40 mg/kg	> 40 mg/kg		
CCCCCCCCCCCCCCOc1ccc(C(=O)N[C@H]2C[C@@H](O)[C@@H](O)NC(=O)[C@@H]3[C@@H](O)[C@@H](C)CN3C(=O)[C@H]([C@@H](C)O)NC(=O)[C@H]([C@H](O)[C@@H](O)c3ccc(O)cc3)NC(=O)[C@@H]3C[C@@H](O)CN3C(=O)[C@H]([C@@H](C)O)NC2=O)cc1 [drawing 154] (X20-[Orn(4R-OH,5R-OH)]T[Hyp][hTyr(3S-OH,4S-OH)]T[Pro(3S-OH,4S-Me)]; lactam 1-C)			3 mg/kg	5 mg/kg	
CCCCCCCCCCOc1cccc(C(=O)N[C@H]2C[C@@H](O)[C@@H](O)NC(=O)[C@@H]3[C@@H](O)[C@@H](C)CN3C(=O)[C@H]([C@@H](C)O)NC(=O)[C@H]([C@H](O)[C@@H](O)c3ccc(O)cc3)NC(=O)[C@@H]3C[C@@H](O)CN3C(=O)[C@H]([C@@H](C)O)NC2=O)c1 [drawing 164] (X9-[Orn(4R-OH,5R-OH)]T[Hyp][hTyr(3S-OH,4S-OH)]T[Pro(3S-OH,4S-Me)]; lactam 1-C)		> 40 mg/kg	> 50 mg/kg		
CCCCCCCCCCCCCCSc1ccc(C(=O)N[C@H]2C[C@@H](O)[C@@H](O)NC(=O)[C@@H]3[C@@H](O)[C@@H](C)CN3C(=O)[C@H]([C@@H](C)O)NC(=O)[C@H]([C@H](O)[C@@H](O)c3ccc(O)cc3)NC(=O)[C@@H]3C[C@@H](O)CN3C(=O)[C@H]([C@@H](C)O)NC2=O)cc1 [drawing 158] (X3-[Orn(4R-OH,5R-OH)]T[Hyp][hTyr(3S-OH,4S-OH)]T[Pro(3S-OH,4S-Me)]; lactam 1-C)		2.5 mg/kg	20 mg/kg		
